{"source": "patent US12037583B2", "about": "“Compositions and methods for immunooncology” (Novartis AG, priority 2015, dated 2024)", "key": {"CD3 delta and CD3 gamma": {"system": "CD3 delta and CD3 gamma", "assay": "Loss of surface CD3 by flow cytometry in primary human CD3+ T cells after CD3 delta / CD3 gamma RNP", "format": "cell-based", "settings": "day 7 post-electroporation; anti-CD3 OKT3", "experimental": "Editing of CRISPR systems containing dgRNA molecules comprising targeting domains to sequences of CD3 delta and CD3 gamma were tested for editing in primary CD3+ T cells (gRNA/Cas9 RNP delivered by electroporation) according to the methods described herein. Surface expression of CD3 after editing was assayed by flow cytometry. Briefly, edited CD3+ cells were stained with antibodies against CD3 (OKT3, BioLegend) at day 7 post-electroporation. Expression of CD3 in live cells (identified using 7AAD exclusion) relative to the un-edited controls was used to determine frequency of RNP editing. The results are reported in FIG. 65 and FIG. 66, which include flow cytometry data showing the % editing in primary human CD3+ T cells as measured by loss of surface expression of CD3."}, "FKBP1A": {"system": "FKBP1A", "assay": "S6 phosphorylation by flow cytometry with or without RAD001 after FKBP1A editing", "format": "cell-based, human", "settings": "primary T cells; 2.5 nM RAD001 3 hours; FIG. 54", "experimental": "After thawing, isolated human T cells were activated with CD3/CD28 beads for 3 days at a bead to cell ratio of 3:1. Cells were then electroporated with RNP containing dual guide RNA molecules (as indicated, as described above in these examples), and Cas9 protein using the Neon instrument with the 100 ul tip kit. RNPs were prepared in the following manner. crRNA and trRNA (10 ul of each at 100 uM) were heated in separate tubes to 95 degrees C. for two minutes and then cooled for 5 minutes at room temperature. […]\nAfter electroporation, cells were then transferred into a 6-well plate with 2 ml of T cell media with beads at a 3:1 bead to cell ratio. […] The phosphorylation of S6 was detected by flow cytometry, and was used as an indication of immunosuppressing by RAD001. […] Cells were then washed twice with PBS and analyzed by flow cytometry on the Becton Dickenson LSR Fortessa using FloJo-V10 software.\nAfter electroporation cells were treated with 2.5 nM RAD001 (upper panel) or left untreated (lower panel) and the impact on mTOR pathway inhibition was evaluated by analyzing S6 phosphorylation (pS6) by flow cytometry. […] Positive staining for pS6 (shown in the gating trace) was determined by gating above the fluorescence level seen in a control stained with isotype antibody (not shown). Quantitation of S6 phosphorylation from the flow cytometry data is shown in the graph in the lower panel. […]"}, "PDCD1": {"system": "PDCD1", "assay": "NGS editing of PDCD1 by dgRNA in HEK cells stably expressing Cas9;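 further: dgRNA lipofected into Cas9-expressing HEK cells, lysed after 24 h, target amplicon sequenced, editing = reads carrying insertions or deletions as percent of all reads including wild type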", "format": "cell-based, human", "settings": "at least 3 experiments"}, "[1]": {"system": "potential off-target genomic sites", "assay": "Off-target editing assessment by oligo insertion assay in Cas9-expressing HEK293 cells", "format": "cell-based, human", "settings": "dual guide RNA, FIG. 63, 64", "source_text": "A total of 34 guideRNAs (dual guide RNAs comprising the indicated targeting domain, modified or unmodified, as indicated) targeting B2M (5), TRAC (9), TRBC2 (2), PDCD1 (8), FKBP1A (5), or CIITA (5) were screened in the Cas9-expressing HEK293 cells described above in Example 1, and the results are plotted in FIG. 63 and FIG. 64."}}, "data": [{"substance": "CR005334: dgRNA targeting domain to CD3 delta or CD3 gamma (guide ACUUCGAUAAUGAACUUGCA; chemistry not given here; listed as Homo sapiens)", "values": [{"measurement": "% loss of CD3", "setting": "CD3 delta and CD3 gamma", "value": 98, "unit": "%"}]}, {"substance": "CR002122: dgRNA targeting domain to FKBP1A (guide GUUCUUUUCACAGAUGAGUG; targeting domain within dual guide RNA, chemistry not given here, further chemistry not given here; listed as Homo sapiens)", "values": [{"measurement": "S6 phosphorylation under RAD001, in words", "setting": "FKBP1A", "value": "refractory to the inhibitory effects of the rapalog RAD001"}]}, {"substance": "CR000902: dgRNA targeting domain to PDCD1 (guide GCCCACGACACCAACCACCA; targeting domain within dual guide RNA, chemistry not given here, further chemistry not given here; listed as Homo sapiens)", "values": [{"measurement": "HEK (NGS) % Editing Mean", "setting": "PDCD1", "value": 72, "unit": "%"}, {"measurement": "off-target editing in oligo insertion assay, in words", "setting": "[1]", "value": "no off-target editing was detected"}]}]}
